The results in this text go back to US20260275307A1, “PRIME EDITING SYSTEM BASED ON PERV REVERSE TRANSCRIPTASE” (Jiangxi Agricultural University, priority 2023, published 2026).

Assay [1] relates to fluorescent reporter PFF cell line. The experiment in a line: Small molecules: effect on PE editing efficiency in fluorescent reporter PFF cell line. The class given is cell-based, pig. Conditions: 20 μM RS-1, 200 ng/mL Nocodazole, FIG. 18A; for PE efficiency: single molecule added to medium after transfection: 40 μM L755507, 0.1 μM Brefeldin A, 10 nM TSA; for increase of editing efficiency: single molecule: 10 nM TSA. The procedure:
From this, it can be expected that some small molecules may also improve the editing efficiency of PE. […] Cells were treated by adding the corresponding concentrations of small molecules or combinations of small molecules, respectively, to the medium after transfection.

Assay [2] has as its system 293T cells co-transfected with fluorescent reporter gene vector. The experiment in a line: 293T cell fluorescence reporter gene co-transfection experiment. The class given is cell-based. Conditions: Bmx-PERV-RT with 6 mutation sites and combinations; 3 editing forms; FIG. 12. The procedure: 1×10^5 cells were inoculated into a 24-well culture dish 17-24 hours before cell transfection, and when the cell confluence reached 50-80%, transfection was performed using H4000 reagent (Ingran, China), and each transfection reaction included 200 ng PE editor, 100 ng pegRNA, 100 ng ngRNA, 10 ng fluorescent reporter gene vector and 0.5 μL H4000 reagent. The cells were collected 48 hours after transfection, and detected by flow cytometry (BD, USA), with wild-type fluorescence reporter cells as background, and GFP positive cells were circled with FITC+PE double channel, with GFP ratio as editing efficiency.

The next assay concerns primary PFFs. The experiment in a line: Small molecules: effect on PE editing efficiency in primary PFFs. The class given is cell-based, pig. Conditions: primary PFF; FIG. 18C. On the procedure:
Cells were treated by adding the corresponding concentrations of small molecules or combinations of small molecules, respectively, to the medium after transfection.
The effect of Rs-1, Nocodazole, TSA, and the combination of Rs-1+TSA and Rs-1+Nocodazole in primary PFFs was then verified.

Assay [3] deals with immortalized BFP fluorescence reporter PFF cell line. Description: Editing efficiency of PE editors in immortalized BFP fluorescence reporter PFF cell line (flow cytometry, GFP ratio). The class given is cell-based, Bama pig. Conditions: epPE editors vs PE2c-Puro and each other, FIG. 3. The procedure:
The immortalized BFP fluorescence reporter PFF cell line was cultured in high glucose DMEM (Gibco, USA) medium containing 12% fetal bovine serum ((v/v), Excell, China) and 1% penicillin ((v/v), BI, China). The cell line was constructed by the laboratory, firstly, the SV40 large T antigen was site-directed knocked into the H11 safe harbor site of the primary PFFs of Bama pig, and then the BFP vector was site-directed integrated into the Rosa26 safe harbor site of immortalized PFF by the CRISPR Cas9 technology, and finally the BFP fluorescence reporter PFF cell line was obtained by serial passage. […]
After the cells were digested with 0.125% trypsin (Gibco, USA), the cells were collected into a 1.5 mL EP tube, centrifuged at 200×g for 5 minutes, the supernatant was discarded, 50 μL of 1×PBS buffer was added to resuspend the cells, and the cells were detected by using a flow cytometer (BD, USA), the wild-type fluorescence reporter cells were used as the background, and GFP-positive cells were circled by using two channels of FITC+PE, and the GFP ratio was the editing efficiency.

The subject of a further assay is primary PFF cells. Description: Editing efficiency of PE editors in primary PFF cells (high throughput sequencing of target sites). The class given is cell-based, pig. On the procedure:
The sows for 31 days gestation were sacrificed and dissected, the whole uterus was taken out, the fetus and the fetal membrane were taken out one by one, and transferred into a DMEM solution containing 5% (v/v) penicillin and streptomycin (v/v; Gibco: 15140-122) for storage in a refrigerator at 4° C. In a clean bench, the isolated fetus was transferred one by one to a sterile 10 cm culture dish, and the head, viscera, limbs and tail of the fetus were removed with sterile forceps and scissors; the remaining part of the fetus was cleaned with a PBS solution containing 5% (v/v) penicillin and streptomycin (Gibco: 15140-122)), and then the remaining part of the fetus was cut to about 1 mm^3 within 10-15 minutes, and 5 ml of collagenase working solution was added to the cut tissue; the tip of 1 ml of sterile pipettor was cut off with scissors, and the cut tissue pieces were transferred to a 15 ml sterile centrifuge tube, sealed and placed in a shaker at 37° C. for incubation for 2 hours. After that, the centrifuge tube was centrifuged at 1000 rpm for 5 minutes, the upper collagenase working solution was removed, and the incubated tissues were evenly transferred into two T75 culture dishes and cultured in a 37° C., 5% CO2 sterile incubator. […]

The next assay concerns HEK293T cells. Description: Editing efficiency of PE editors in 293T cells (puromycin screening, sequencing). The class given is cell-based. Conditions: pPE editors with 4 point mutations, FIG. 9. On the procedure:
(§1) Canine fetal fibroblasts (DFF) were isolated from a female canine fetus on 30 days of gestation, and the specific establishment method was the same as that of PFF; goat fetal fibroblasts (SFF) were given by Yunnan Agriculture University Weijiang Laboratory, and the cells were isolated from a small tailed han sheep fetus; 293T cells were purchased from the Cell Bank of the Type Culture Collection Committee of Chinese Academy. All three cells were cultured in high-glucose DMEM (Gibco, USA) culture medium containing 12% (v/v) fetal bovine serum (Excell, China) and 1% (v/v) penicillin-streptomycin (BI, China) at 37° C. in a 5% CO2 incubator.
293T cells: cells were inoculated into a 24-well culture dish 1-2 days before cell transfection, and when the cell confluency reached 50-60%, the cells were transfected with Lipofectamine 3000 reagent (Invitrogen, USA), and each transfection reaction included 1 μg PE editor, 0.5 μg pegRNA, 0.5 μg ngRNA and 1 μL Lipofectamine 3000 reagent.
293T cells: after transfection, 3 μg/mL puromycin (Sigma, Japan) was added for screening for 3 days, and then the culture medium was changed and cultured for another 2 days.
(§2) The method is same with the detection of editing efficiency of PFF.

Assay [4] has as its system dog fetal fibroblasts (DFF). Description: Editing efficiency of PE editors in dog fetal fibroblasts. The class given is cell-based. Conditions: pPE editors with 4 point mutations; canine fetal fibroblasts; FIG. 9. On the procedure: as §1
(§3) DFF and SFF: The method is similar to the transfection method of PFF, and the difference lies in that when DFF and SFF were transformed, the cells were shocked by using the EN-150 program, then again by using the CA-113 program.
(§4) SFF and DFF cells: 3 μg/mL puromycin (Sigma, Japan) was added 48 hours after electrotransformation for screening for 2 days, and then the culture medium was changed for further culture for 2 days.
as §2

In assay [5] the test system is sheep fetal fibroblasts (SFF). The experiment in a line: Editing efficiency of PE editors in sheep fetal fibroblasts. The class given is cell-based. Conditions: pPE editors with 4 point mutations; FIG. 9. On the procedure:
as §1, §3, §4, §2

For the compound `C[C@H]1CCC/C=C/[C@@H]2C[C@H](O)C[C@H]2[C@H](O)/C=C/C(=O)O1` [BrefeldinA, Brefeldin A], in assay [1], the PE efficiency entry was “significantly (P<0.05 or P<0.01) improved PE efficiency”.

Take “M5.1: pPE editor, PERV-RT variant carrying 5 amino acid mutations (D199N, T305K, W312F, L602W, V222A); SEQ ID NO: 45”: the “efficiency (GFP ratio)” value in assay [2] is reported as “overall optimal efficiency in 3 editing forms”.

For `O=C(Nc1ccc(Br)cc1)c1ccc(Br)c(S(=O)(=O)NCc2ccccc2)c1` [Rs-1], in assay [1], the PE efficiency result is “significantly (P<0.05 or P<0.01) improved PE efficiency” and the “increase of editing efficiency” value turned out to be 32.7%. In the assay on primary PFFs, the “improvement of overall editing efficiency for the 6 sites” value (“improvement” below) is given as 20.8%.

On to “epPE-AC-M4Δ*-Puro: epPE-AC-M3Δ-Puro with RT amino acids 329-332 mutated from EKGE to PGTL; SEQ ID NO: 23”, for which the “editing efficiency (GFP ratio)” value in assay [3] is listed as “higher than that of epPE-B-M4Δ*-Puro”.

On to “epPE-AC-M3Δ-Puro: PE editor: nCas9 fused to PERV-AC-NC and PERV-AC-RT (ΔRNase H) with D199N, T305K, W312F; SEQ ID NO: 22”, for which the “editing efficiency (GFP ratio)” value in assay [3] was “higher than that of epPE-B-M3Δ-Puro”. The average editing efficiency result in the assay with primary PFF cells (6 editing sites tested in the primary PFF, FIG. 4) is “higher than that of epPE-B-M3Δ-Puro”.

For `CC(/C=C/C(=O)NO)=C\[C@@H](C)C(=O)c1ccc(N(C)C)cc1` [TSA, Trichostatin A], in assay [1], the PE efficiency entry was “significantly (P<0.05 or P<0.01) improved PE efficiency” and the “increase of editing efficiency” value is recorded as 34.4%. In addition, the “improvement” value with primary PFFs came to 14.3%.

With `COC(=O)Nc1nc2ccc(C(=O)c3cccs3)cc2[nH]1` [Nocodazole], in assay [1], the PE efficiency result is reported as “significantly (P<0.05 or P<0.01) improved PE efficiency” and the “increase of editing efficiency” value is reported as 66.9%. In the assay with primary PFFs, the “improvement” value came out at 36.4%.

As for “bmx-pPE-C-M4-puro: pPE editor, Bama pig type C PERV-RT with D199N, T305K, W312F, L602W; SEQ ID NO: 31”, the editing efficiency result was “overall higher efficiency” in the assay on primary PFF cells (pPE editors with 4 point mutations in PFF, FIG. 8); “higher efficiency at most sites” in the assay with HEK293T cells; “higher efficiency at most sites” in assay [4]; “higher efficiency at most sites” in assay [5].

As to `CCCCCCNC(=O)Nc1ccc(S(=O)(=O)Nc2ccc(CCNC[C@H](O)COc3ccc(O)cc3)cc2)cc1` [L755507], the PE efficiency result in assay [1] is listed as “significantly (P<0.05 or P<0.01) improved PE efficiency”.
